Test system: LG0567-F671-PDC KRAS tumor spheroid viability
Assay: Anticancer human tumor LG0567-F671-PDC patient-derived lung adenocarcinoma cell line growth inhibition [KRAS2]
Details: spheroids with HUVEC and MSC; for viability, T/C: stronger effect = lower value
Excerpt: Multicellular complex tumor spheroid response to RAS pathway inhibitors in combination with a targeted agents in patient-derived cell lines with oncogenic KRAS variants from multiple cancer types
A high-throughput screen of multi-cell type tumor spheroids was designed to identify active combinations of targeted small molecules and KRAS pathway inhibitors. Complex spheroids include a stromal component modeled by human endothelial cells (HUVEC) and fibroblasts modeled by human mesenchymal stem cells (MSCs). The concentration ranges selected for each drug and investigational agent were based upon clinically achievable concentrations if the clinical Cmax of the agent was known.
Compounds. The drugs and investigational agents: BI-3406 (NSC825286), BAY-293 (NSC824723), batoprotafib (TNO155; NSC825523), sotorasib (AMG 510; NSC818433), MRTX1257 (NSC819558), elimusertib (BAY 1895344; NSC800525), molibresib (GSK525762; NSC774829), temuterkib (LY3214996; NSC803410), venetoclax (NSC766270), alisertib (NSC759677), olaparib (NSC753686), talazoparib (NSC767125), erdafitinib (NSC781556), ipatasertib (NSC767898), cabozantinib (NSC761068), nintedanib (NSC756659), abemaciclib (NSC768073), docetaxel (NSC628503), trametinib (NSC758246), and sapanisertib (NSC764658) were obtained from the National Cancer Institute (NCI) Developmental Therapeutics Program Chemical Repository. The FDA-approved anticancer drug set is available from the Developmental Therapeutics Program. […] The stock solutions were prepared in dimethyl sulfoxide (DMSO, Sigma-Aldrich, St. Louis, MO, cat. D2650) at 800-fold the tested concentration and stored at -70 degrees C prior to their use. All drugs and investigational agents were tested over a range starting from a high concentration at or near the clinical Cmax and decreasing in half-log increments. If the clinical Cmax for an agent had not been determined, the highest concentration tested was 10 microM.
Cell Culture. All cells were maintained in an incubator at 37 degrees C and 5% CO2 with 95% humidity. The PDC lines were cultured according to standard operating procedures established by the NCI PDMR (https://pdmr.cancer.gov/sops/default.htm). Briefly, all PDCs were thawed and cultured in Matrigel-coated flasks prepared with a working solution of 1X Ham's F-12 nutrient mix, without supplementation (Invitrogen, Waltham, MA, cat. 11765054), 100 U/mL penicillin-streptomycin (Invitrogen, cat. 15140122), and 2.5% Matrigel (Corning Inc., Corning, NY, cat. 354248) for the first three passages. All PDCs were cultured in complete DMEM/F-12 media containing advanced DMEM/F-12 (Invitrogen, cat. 12634028), 4.9% defined fetal bovine serum, heat inactivated (HyClone Laboratories Inc., Logan, UT, cat. SH30070.03HI), 389 ng/mL hydrocortisone (Sigma-Aldrich, cat. H4001), 9.7 ng/mL human EGF recombinant protein (Invitrogen, cat. PHG0313), 23.4 microg/mL adenine (Sigma-Aldrich, cat. A2786), 97.3 U/mL penicillin-streptomycin (Invitrogen, cat. 15140122), 1.9 mM L-glutamine (Invitrogen, cat. 25030081), and 9.7 microM Y-27632 dihydrochloride (Tocris Bioscience, Bristol, United Kingdom, cat. 1254). The PDCs were cultured in complete DMEM/F12 media without 9.7 microM Y-27632 dihydrochloride for at least two passages prior to the screen. The established cell line HOP-62 was cultured in RPMI 1640 medium, HEPES (Invitrogen, cat. 22400105) with 10% defined fetal bovine serum (HyClone Laboratories Inc., cat. SH30070.03) and 2 mM L-glutamine (Invitrogen, cat. 25030081). The pooled donor HUVEC were cultured in endothelial cell growth medium 2 (PromoCell, Heidelberg, Germany, cat. C-22011) and the hMSC were cultured in mesenchymal stem cell growth medium 2 (PromoCell, cat. C-28009). For all experiments, HUVEC and hMSC were used at passages </=5, while the malignant cell lines were used at passages </=15. […]

[1] = curve of first compound, second compound 0.1 µM
[2] = curve of first compound, second compound 0.316 µM
[3] = curve of first compound, second compound 1 µM
[4] = curve of first compound, second compound 3.16 µM
[5] = second compound 0.1 µM, first compound 0.0316 µM
[6] = second compound 0.1 µM, first compound 0.1 µM
[7] = second compound 0.316 µM, first compound 0.0316 µM
[8] = second compound 0.316 µM, first compound 0.1 µM
[9] = second compound 1 µM, first compound 0.0316 µM
[10] = second compound 1 µM, first compound 0.1 µM
[11] = second compound 3.16 µM, first compound 0.0316 µM
[12] = second compound 3.16 µM, first compound 0.1 µM
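Note: drug exposure lasted seven days after spheroids formed for three days.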
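Throughout, for viability, T/C: 100% = DMSO vehicle control viability.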

SMILES: C=CC(=O)N1CCN(c2nc(=O)n(-c3c(C)ccnc3C(C)C)c3nc(-c4c(O)cccc4F)c(F)cc23)C(C)C1 (stereo not drawn)
- viability, T/C (compound 0.1 µM): 25.5% [middle of 17 runs]
- viability, T/C (compound 0.316 µM): 23.7% [middle of 17 runs]
- viability, T/C (compound 1 µM): 25.1% [middle of 17 runs]
- viability, T/C (compound 3.16 µM): 24.4% [middle of 17 runs]
- viability, T/C (compound 10 µM): 23.8% [middle of 17 runs]
- IC50 (compound alone, run of 07/12/2021): < 100 nM
- IC50 (compound alone, run of 07/19/2021): < 100 nM
- IC50 (compound alone, run of 07/26/2021): < 100 nM

SMILES: COC(=O)c1ccc2c(C(=Nc3ccc(N(C)C(=O)CN4CCN(C)CC4)cc3)c3ccccc3)c(O)[nH]c2c1 + C=CC(=O)N1CCN(c2nc(OCC3CCCN3C)nc3c2CCN(c2cccc4cccc(C)c24)C3)CC1CC#N
- IC50 (curve of first compound, second compound 0.0316 µM): < 31.6 nM
- IC50 [1]: < 31.6 nM
- IC50 [2]: < 31.6 nM
- IC50 [3]: < 31.6 nM
- IC50 [4]: < 31.6 nM
- viability, T/C (second compound 0.0316 µM, first compound 0.0316 µM): 23.7%
- viability, T/C (second compound 0.0316 µM, first compound 0.1 µM): 23.2%
- viability, T/C (second compound 0.0316 µM, first compound 0.316 µM): 21.9%
- viability, T/C (second compound 0.0316 µM, first compound 1 µM): 30.4%
- viability, T/C (second compound 0.0316 µM, first compound 3.16 µM): 26.8%
- viability, T/C (second compound 0.0316 µM, first compound 10 µM): 31.9%
- viability, T/C [5]: 21.6%
- viability, T/C [6]: 20.4%
- viability, T/C (second compound 0.1 µM, first compound 0.316 µM): 23.4%
- viability, T/C (second compound 0.1 µM, first compound 1 µM): 27.4%
- viability, T/C (second compound 0.1 µM, first compound 3.16 µM): 26.1%
- viability, T/C (second compound 0.1 µM, first compound 10 µM): 27%
- viability, T/C [7]: 23.2%
- viability, T/C [8]: 21.1%
- viability, T/C (second compound 0.316 µM, first compound 0.316 µM): 22.7%
- viability, T/C (second compound 0.316 µM, first compound 1 µM): 27.8%
- viability, T/C (second compound 0.316 µM, first compound 3.16 µM): 27.7%
- viability, T/C (second compound 0.316 µM, first compound 10 µM): 28.3%
- viability, T/C [9]: 26.6%
- viability, T/C [10]: 26.3%
- viability, T/C (second compound 1 µM, first compound 0.316 µM): 27.6%
- viability, T/C (second compound 1 µM, first compound 1 µM): 28.8%
- viability, T/C (second compound 1 µM, first compound 3.16 µM): 23.9%
- viability, T/C (second compound 1 µM, first compound 10 µM): 23.4%
- viability, T/C [11]: 17.9%
- viability, T/C [12]: 29.2%
- viability, T/C (second compound 3.16 µM, first compound 0.316 µM): 13.2%
- viability, T/C (second compound 3.16 µM, first compound 1 µM): 0.34%
- viability, T/C (second compound 3.16 µM, first compound 3.16 µM): 0.12%
- viability, T/C (second compound 3.16 µM, first compound 10 µM): 0.93%

SMILES: Cn1ncnc1[C@H]1c2n[nH]c(=O)c3cc(F)cc(c23)N[C@@H]1c1ccc(F)cc1 + C=CC(=O)N1CCN(c2nc(=O)n(-c3c(C)ccnc3C(C)C)c3nc(-c4c(O)cccc4F)c(F)cc23)C(C)C1
- IC50 [1]: < 0.316 nM
- IC50 [2]: < 0.316 nM
- IC50 [3]: < 0.316 nM
- IC50 [4]: < 0.316 nM
- IC50 (curve of first compound, second compound 10 µM): < 0.316 nM
- viability, T/C (second compound 0.1 µM, first compound 0.000316 µM): 24.7%
- viability, T/C (second compound 0.1 µM, first compound 0.001 µM): 27.1%
- viability, T/C (second compound 0.1 µM, first compound 0.00316 µM): 21.8%
- viability, T/C (second compound 0.1 µM, first compound 0.01 µM): 21.3%
- viability, T/C [5]: 23.8%
- viability, T/C [6]: 24.4%
- viability, T/C (second compound 0.316 µM, first compound 0.000316 µM): 25.5%
- viability, T/C (second compound 0.316 µM, first compound 0.001 µM): 26.2%
- viability, T/C (second compound 0.316 µM, first compound 0.00316 µM): 23.1%
- viability, T/C (second compound 0.316 µM, first compound 0.01 µM): 20.8%
- viability, T/C [7]: 24.1%
- viability, T/C [8]: 21.6%
- viability, T/C (second compound 1 µM, first compound 0.000316 µM): 29.7%
- viability, T/C (second compound 1 µM, first compound 0.001 µM): 27.1%
- viability, T/C (second compound 1 µM, first compound 0.00316 µM): 27.1%
- viability, T/C (second compound 1 µM, first compound 0.01 µM): 20.9%
- viability, T/C [9]: 23.6%
- viability, T/C [10]: 22.8%
- viability, T/C (second compound 3.16 µM, first compound 0.000316 µM): 24.8%
- viability, T/C (second compound 3.16 µM, first compound 0.001 µM): 25.9%
- viability, T/C (second compound 3.16 µM, first compound 0.00316 µM): 25.2%
- viability, T/C (second compound 3.16 µM, first compound 0.01 µM): 25.5%
- viability, T/C [11]: 23.4%
- viability, T/C [12]: 21.1%
- viability, T/C (second compound 10 µM, first compound 0.000316 µM): 21.9%
- viability, T/C (second compound 10 µM, first compound 0.001 µM): 23.5%
- viability, T/C (second compound 10 µM, first compound 0.00316 µM): 24.6%
- viability, T/C (second compound 10 µM, first compound 0.01 µM): 20.2%
- viability, T/C (second compound 10 µM, first compound 0.0316 µM): 19.6%
- viability, T/C (second compound 10 µM, first compound 0.1 µM): 20.1%

Source: PubChem BioAssay AID1963856 (Molecular Pharmacology Branch, DTP, NCI, 2024)
